{"source": "paper PMC5166496", "about": "(International Journal of Biological Sciences, 2016)", "target": "T1, SIRT1 (Homo sapiens, UniProt Q96EB6)", "T1 sequence (Q96EB6 2-747)": "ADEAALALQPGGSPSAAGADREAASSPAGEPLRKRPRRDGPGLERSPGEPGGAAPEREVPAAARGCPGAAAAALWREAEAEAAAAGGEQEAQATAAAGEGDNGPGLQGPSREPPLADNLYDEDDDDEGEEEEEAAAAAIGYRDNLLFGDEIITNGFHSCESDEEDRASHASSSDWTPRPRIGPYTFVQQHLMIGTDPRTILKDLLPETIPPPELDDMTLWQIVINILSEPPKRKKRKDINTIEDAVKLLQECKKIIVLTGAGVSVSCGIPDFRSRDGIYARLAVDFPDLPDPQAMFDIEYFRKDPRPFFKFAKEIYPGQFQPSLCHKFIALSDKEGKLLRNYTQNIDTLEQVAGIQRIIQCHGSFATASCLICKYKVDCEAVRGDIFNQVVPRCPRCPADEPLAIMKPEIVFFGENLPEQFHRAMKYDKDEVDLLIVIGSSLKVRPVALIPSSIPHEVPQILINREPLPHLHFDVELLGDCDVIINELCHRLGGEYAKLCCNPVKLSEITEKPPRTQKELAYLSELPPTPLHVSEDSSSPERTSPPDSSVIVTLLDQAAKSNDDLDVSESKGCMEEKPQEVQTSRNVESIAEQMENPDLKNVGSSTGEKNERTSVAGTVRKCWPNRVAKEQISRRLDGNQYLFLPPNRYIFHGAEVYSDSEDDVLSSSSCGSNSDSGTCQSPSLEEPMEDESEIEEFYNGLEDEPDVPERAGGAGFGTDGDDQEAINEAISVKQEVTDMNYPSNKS", "test": "SensoLyte […] fluorimetric SIRT1 deacetylase activity assay kit", "assay_type": "biochemical", "data": [{"smiles": "CC(C)(C)c1cc(C=C2C(=O)NC(=S)NC2=O)cc(C(C)(C)C)c1O", "note": "[MHY2256, 5-(3,5-Di-tert-butyl-4-hydroxybenzylidene)-2-thioxodihydropyrimidine-4,6(1H,5H)-dione]", "values": [{"measurement": "IC50", "value": 270, "unit": "µM"}]}]}
